Each molecule was assayed against T1, LRRK2 (Homo sapiens, UniProt Q5S007, G2019S) (assay: In Vitro LRRK2 LabChip Assay (LRRK2 Ki)). Conditions: Table 5 compounds (formula I).
T1 construct: purchased Invitrogen PV4882
Type: biochemical
Procedure: In Vitro LRRK2 LabChip Assay
This assay was used to determine a compound's potency in inhibiting activity of LRRK2 by determining, Kiapp, IC50, or percent inhibition values. In a polypropylene plate, LRRK2, fluorescently-labeled peptide substrate, ATP and test compound were incubated together. Using a LabChip 3000 (Caliper Life Sciences), after the reaction the substrate was separated by capillary electrophoresis into two populations: phosphorylated and unphosphorylated. The relative amounts of each were quantitated by fluorescence intensity. LRRK2 Ki was determined according to the equation: Y=V0*(1−((x+Ki*(1+S/Km)+Et)/(2*Et)−(((x+Ki*(1+S/Km)+Et)^2−(4*Et*x))^0.5)/(2*Et))). Ki values in Table 4 and elsewhere herein are shown in μM.
Assay conditions and materials used were as follows:
LRRK2 Wild type in 5 mM MgCl2: 15 nM (Invitrogen lot #500607F)
Kinase reaction time: 2 hours
Wild type in 5 mM MgCl2: 80 μM
Solid Support: Black 50 μL volume polypropylene 384 well plate (MatriCal cat # MP101-1-PP)
Kinase: LRRK2 G2019S (Invitrogen cat #PV4882). • LRRK2 Wild type (Invitrogen cat #PV4874).
Substrate: 5FAM-[…]-CONH2
Non-binding plate: 384 well clear V-bottom polypropylene plates (Greiner cat #781280).
ATP: 10 mM ATP (Cell Signaling cat #9804).
Coating Reagent #3: Coating Reagent #3 (Caliper).
Complete Reaction Buffer: H2O/25 mM Tris, pH 8.0/5 mM MgCl2/2 mM DTT/0.01% Triton X-100.
Stop Solution: H2O/100 mM HEPES, pH 7.2/0.015% Brij-35/0.2% Coating Reagent #3/20 mM EDTA.
Separation Buffer: H2O/100 mM HEPES, pH 7.2/0.015% Brij-35/0.1% Coating Reagent #3/1:200 Coating Reagent #8/10 mM EDTA/5% DMSO.
Compound Plate Preparation:
For serial dilutions, 34.6 μl DMSO was added to columns 3-24. For the assay controls, 37.5 μl DMSO was added to columns 1 and 2 of rows A and P. a, d and 50 μl 25 μM G-028831 (Staurosporine) was added to columns 1 and 2, row B. For the samples: to start at 100 μM, 37.5 μl DMSO was to columns 1 and 2, then 12.5 μl 10 mM compound; to start at 10 μM, 78 μl DMSO was added to columns 1 & 2, then 2 μl 10 mM compound; and to start at 1 μM, 25 μM compound (2 μl 10 mM cmpd+798 μl DMSO) was added to empty columns 1 and 2. A Precision instrument was used to perform 1:3.16 serial dilutions (“PLK_BM_serial_halflog”).
ATP was diluted to 282.1 μM in Complete Kinase Buffer (final concentration was 130 μM).
Total and Blank Preparation:
In Complete Reaction Buffer, substrate was diluted to 4 μM. Equal volumes of Complete Reaction Buffer and 4 μM substrate were combined to obtain the blank. Equal volumes of Complete Reaction Buffer and 4 μM substrate were combined and to the combined solution was added 2× final LRRK2 concentration.
To a 50 μl polypropylene plate, 5 μl/well buffer/substrate was added by hand to Blank wells. A Biomek FX was used to start the kinase reaction (“PLK SAR 23 ATP”). The following were added to the appropriate wells:
5 μl/well compound/ATP in Assay Plate;
5 μl/well kinase/substrate in Assay Plate;
The plate was incubated for 2 hours in the dark. Biomek FX was used to stop the kinase reaction (“PLK Stop”), and 10 μl/well Stop solution was added to the Assay Plate. Results were read on the LabChip 3000.
The LabChip 3000 was run using the job “LRRK2 IC50” with the following job settings:
Downstream voltage: −500 V
Upstream voltage: −2350 V
Post sample buffer sip time: 75 seconds
Post dye buffer sip time: 75 seconds
Final delay time: 200 seconds

T1 sequence (Q5S007 whole entry G2019S): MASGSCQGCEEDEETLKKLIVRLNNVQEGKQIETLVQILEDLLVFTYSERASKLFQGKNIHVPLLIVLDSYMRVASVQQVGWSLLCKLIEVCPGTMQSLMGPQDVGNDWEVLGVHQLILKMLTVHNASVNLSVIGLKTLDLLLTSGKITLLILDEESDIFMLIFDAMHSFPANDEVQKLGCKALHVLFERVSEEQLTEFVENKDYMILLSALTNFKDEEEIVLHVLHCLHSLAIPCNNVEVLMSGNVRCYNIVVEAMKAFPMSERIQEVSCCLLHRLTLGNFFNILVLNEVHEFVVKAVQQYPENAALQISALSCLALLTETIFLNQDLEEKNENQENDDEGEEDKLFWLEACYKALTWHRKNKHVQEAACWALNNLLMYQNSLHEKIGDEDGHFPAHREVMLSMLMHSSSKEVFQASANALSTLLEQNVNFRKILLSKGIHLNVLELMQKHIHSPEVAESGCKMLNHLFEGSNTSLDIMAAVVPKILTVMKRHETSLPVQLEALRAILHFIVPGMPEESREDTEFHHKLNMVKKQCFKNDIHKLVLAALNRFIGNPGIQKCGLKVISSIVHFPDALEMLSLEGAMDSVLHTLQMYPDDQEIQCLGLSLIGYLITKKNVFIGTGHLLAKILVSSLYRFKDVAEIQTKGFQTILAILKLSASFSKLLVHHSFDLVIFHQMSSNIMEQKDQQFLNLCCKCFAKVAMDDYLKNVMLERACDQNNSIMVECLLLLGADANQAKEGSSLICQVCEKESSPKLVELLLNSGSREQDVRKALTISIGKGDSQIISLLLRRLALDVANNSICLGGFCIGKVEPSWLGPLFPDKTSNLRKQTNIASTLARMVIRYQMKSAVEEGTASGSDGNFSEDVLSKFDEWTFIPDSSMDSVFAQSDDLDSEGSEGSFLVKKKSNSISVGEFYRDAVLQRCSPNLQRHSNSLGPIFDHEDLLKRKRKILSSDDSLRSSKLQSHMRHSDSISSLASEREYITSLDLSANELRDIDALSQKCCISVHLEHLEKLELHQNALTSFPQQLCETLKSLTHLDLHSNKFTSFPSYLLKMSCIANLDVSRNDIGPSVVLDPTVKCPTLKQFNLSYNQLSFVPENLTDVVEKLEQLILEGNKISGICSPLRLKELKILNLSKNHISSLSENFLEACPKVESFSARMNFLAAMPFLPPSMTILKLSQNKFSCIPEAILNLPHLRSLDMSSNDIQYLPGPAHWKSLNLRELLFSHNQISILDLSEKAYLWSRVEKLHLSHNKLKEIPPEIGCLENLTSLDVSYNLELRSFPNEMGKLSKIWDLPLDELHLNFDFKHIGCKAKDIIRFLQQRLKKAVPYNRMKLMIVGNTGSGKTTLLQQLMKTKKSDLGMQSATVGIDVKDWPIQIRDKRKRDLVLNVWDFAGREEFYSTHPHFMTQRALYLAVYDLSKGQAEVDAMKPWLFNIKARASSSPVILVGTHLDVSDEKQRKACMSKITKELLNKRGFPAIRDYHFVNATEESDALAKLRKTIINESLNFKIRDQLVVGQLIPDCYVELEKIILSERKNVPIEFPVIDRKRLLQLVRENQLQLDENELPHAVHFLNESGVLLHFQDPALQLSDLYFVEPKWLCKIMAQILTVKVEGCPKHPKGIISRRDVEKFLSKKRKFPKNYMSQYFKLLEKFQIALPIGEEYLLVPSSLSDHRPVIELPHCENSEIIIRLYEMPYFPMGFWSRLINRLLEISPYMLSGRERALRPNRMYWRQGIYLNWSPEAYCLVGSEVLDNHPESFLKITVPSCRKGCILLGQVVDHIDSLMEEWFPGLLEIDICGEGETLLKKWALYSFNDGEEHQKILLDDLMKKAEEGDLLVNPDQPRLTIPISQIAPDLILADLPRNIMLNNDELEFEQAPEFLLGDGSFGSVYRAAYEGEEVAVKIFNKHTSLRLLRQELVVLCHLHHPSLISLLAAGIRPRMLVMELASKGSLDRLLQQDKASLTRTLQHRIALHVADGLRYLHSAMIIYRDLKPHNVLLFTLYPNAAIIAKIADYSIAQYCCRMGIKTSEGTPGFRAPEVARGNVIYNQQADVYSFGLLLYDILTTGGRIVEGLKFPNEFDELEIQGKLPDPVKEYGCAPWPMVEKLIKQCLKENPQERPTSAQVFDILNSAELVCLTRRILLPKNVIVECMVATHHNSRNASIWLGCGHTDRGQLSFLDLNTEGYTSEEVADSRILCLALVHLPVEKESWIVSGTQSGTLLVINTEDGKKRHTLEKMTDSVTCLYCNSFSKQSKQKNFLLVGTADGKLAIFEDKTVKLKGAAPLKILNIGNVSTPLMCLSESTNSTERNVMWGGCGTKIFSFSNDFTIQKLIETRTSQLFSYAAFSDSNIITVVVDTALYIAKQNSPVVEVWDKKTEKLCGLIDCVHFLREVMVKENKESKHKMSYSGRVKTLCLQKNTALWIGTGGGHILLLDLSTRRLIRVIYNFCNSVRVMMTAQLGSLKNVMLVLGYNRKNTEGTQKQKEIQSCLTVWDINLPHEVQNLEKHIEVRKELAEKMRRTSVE

Molecule	Ki
CNc1nc(Nc2cc(OC(F)F)c(C(=O)N3CCOCC3)cc2Cl)ncc1C(F)(F)F [Compound 79, [5-Chloro-2-difluoromethoxy-4-(4-methylamino-5-trifluoromethyl-pyrimidin-2-ylamino)-phenyl]-morpholin-4-yl-methanone]	27.1 nM
CNc1nc(Nc2cc(OC)c(C(=O)N3CCOCC3)c(OC)c2F)ncc1C(F)(F)F [Compound 122, [3-Fluoro-2,6-dimethoxy-4-(4-methylamino-5-trifluoromethyl-pyrimidin-2-ylamino)-phenyl]-morpholin-4-yl-methanone]	2.06 nM
CNc1nc(Nc2cc(F)c(C(=O)N3C[C@H](F)[C@@H](F)C3)cc2OC)ncc1C(F)(F)F [Compound 36, ((3S,4S)-3,4-Difluoro-pyrrolidin-1-yl)-[2-fluoro-5-methoxy-4-(4-methylamino-5-trifluoromethyl-pyrimidin-2-ylamino)-phenyl]-methanone]	4.42 nM
COc1cc(C(=O)N2CCOCC2)c(F)cc1Nc1ncc(C(F)(F)F)c(NC2CCC2)n1 [Compound 91, [4-(4-Cyclobutylamino-5-trifluoromethyl-pyrimidin-2-ylamino)-2-fluoro-5-methoxy-phenyl]-morpholin-4-yl-methanone]	0.31 nM
CNc1nc(Nc2cc(F)c(C(=O)N3CCN4CCCC4C3)cc2OC)ncc1C(F)(F)F (stereo not shown) [Compound 4, [2-Fluoro-5-methoxy-4-(4-methylamino-5-trifluoromethyl-pyrimidin-2-ylamino)-phenyl]-(hexahydro-pyrrolo[1,2-a]pyrazin-2-yl)-methanone]	3.41 nM
CNc1nc(Nc2cc(OC)c(C(=O)N3CCOCC3)c(OC)c2Cl)ncc1C(F)(F)F [Compound 82, [3-Chloro-2,6-dimethoxy-4-(4-methylamino-5-trifluoromethyl-pyrimidin-2-ylamino)-phenyl]-morpholin-4-yl-methanone]	2.82 nM
COc1cc(C(=O)N2CCOCC2)c(OC)cc1Nc1ncc(Cl)c(OC)n1 [Compound 87, [4-(5-Chloro-4-methoxy-pyrimidin-2-ylamino)-2,5-dimethoxy-phenyl]-morpholin-4-yl-methanone]	5.5 nM
CCNc1nc(Nc2cc(F)c(C(=O)N3CCOCC3)c(F)c2OC)ncc1C(F)(F)F [Compound 62, [4-(4-Ethylamino-5-trifluoromethyl-pyrimidin-2-ylamino)-2,6-difluoro-3-methoxy-phenyl]-morpholin-4-yl-methanone]	9.08 nM
CCNc1nc(Nc2cc(F)c(C(=O)N3CC4(CCO4)C3)cc2OC)ncc1C(F)(F)F [Compound 34, [4-(4-Ethylamino-5-trifluoromethyl-pyrimidin-2-ylamino)-2-fluoro-5-methoxy-phenyl]-(1-oxa-6-aza-spiro[3.3]hept-6-yl)-methanone]	1.3 nM
CCNc1nc(Nc2ccc(C(=O)N3CC[C@H](F)C3)cc2Cl)ncc1C#N [Compound 108, 2-[2-Chloro-4-((S)-3-fluoro-pyrrolidine-1-carbonyl)-phenylamino]-4-ethylamino-pyrimidine-5-carbonitrile]	28.9 nM
CNc1nc(Nc2cc(F)c(C(=O)N(C)C3CCN(C)CC3)cc2OC)ncc1C(F)(F)F [Compound 7, 2-Fluoro-5-methoxy-N-methyl-4-(4-methylamino-5-trifluoromethyl-pyrimidin-2-ylamino)-N-(1-methyl-piperidin-4-yl)-benzamide]	7.55 nM
CCNc1nc(Nc2cc(C)c(C(=O)NCC(C)(C)O)cc2OC)ncc1C(F)(F)F [Compound 105, 4-(4-Ethylamino-5-trifluoromethyl-pyrimidin-2-ylamino)-N-(2-hydroxy-2-methyl-propyl)-5-methoxy-2-methyl-benzamide]	0.31 nM
CCNc1nc(Nc2cc(C)c(C(=O)N3CC[C@H](F)C3)cc2Cl)ncc1C#N [Compound 107, 2-[2-Chloro-4-((S)-3-fluoro-pyrrolidine-1-carbonyl)-5-methyl-phenylamino]-4-ethylamino-pyrimidine-5-carbonitrile]	9.12 nM
O=C(c1cc(OCCF)c(Nc2ncc(C(F)(F)F)c(NC3CC3)n2)cc1F)N1CCOCC1 [Compound 70, [4-(4-Cyclopropylamino-5-trifluoromethyl-pyrimidin-2-ylamino)-2-fluoro-5-(2-fluoro-ethoxy)-phenyl]-morpholin-4-yl-methanone]	0.658 nM
CNc1nc(Nc2ccc(C(=O)N3CCOCC3)c(C)c2OC)ncc1C(F)(F)F [Compound 33, [3-Methoxy-2-methyl-4-(4-methylamino-5-trifluoromethyl-pyrimidin-2-ylamino)-phenyl]-morpholin-4-yl-methanone]	114 nM
CNc1nc(Nc2cc(OC)c(C(=O)N(C)C)cc2OCF)ncc1C(F)(F)F [Compound 120, 5-Fluoromethoxy-2-methoxy-N,N-dimethyl-4-(4-methylamino-5-trifluoromethyl-pyrimidin-2-ylamino)-benzamide]	4.42 nM
CCNc1nc(Nc2cc(F)c(C(=O)NC3(CO)CC3)cc2OC)ncc1C(F)(F)F [Compound 114, 4-(4-Ethylamino-5-trifluoromethyl-pyrimidin-2-ylamino)-2-fluoro-N-(1-hydroxymethyl-cyclopropyl)-5-methoxy-benzamide]	0.559 nM
CNc1nc(Nc2cc(C)c(C(=O)N3CCOCC3)cc2OCCF)ncc1C(F)(F)F [Compound 84, [5-(2-Fluoro-ethoxy)-2-methyl-4-(4-methylamino-5-trifluoromethyl-pyrimidin-2-ylamino)-phenyl]-morpholin-4-yl-methanone]	2.34 nM
CNc1nc(Nc2cc(F)c(C(=O)N3CCOCC3)c(F)c2OC)ncc1C(F)(F)F [Compound 63, [2,6-Difluoro-3-methoxy-4-(4-methylamino-5-trifluoromethyl-pyrimidin-2-ylamino)-phenyl]-morpholin-4-yl-methanone]	24.3 nM
CCNc1nc(Nc2cc(F)c(C(=O)NC(C)(C)CO)cc2OC)ncc1C(F)(F)F [Compound 106, 4-(4-Ethylamino-5-trifluoromethyl-pyrimidin-2-ylamino)-2-fluoro-N-(2-hydroxy-1,1-dimethyl-ethyl)-5-methoxy-benzamide]	0.406 nM
COc1cc(C(=O)N2CCOCC2)c(F)cc1Nc1ncc(C(F)(F)F)c(N[C@@H]2C[C@@H]2F)n1 [Compound 75, {2-Fluoro-4-[4-((1R,2S)-2-fluoro-cyclopropylamino)-5-trifluoromethyl-pyrimidin-2-ylamino]-5-methoxy-phenyl}-morpholin-4-yl-methanone]	2.19 nM
CNc1nc(Nc2cc(C)c(C(=O)N3CCOCC3)cc2F)ncc1C(F)(F)F [Compound 73, [5-Fluoro-2-methyl-4-(4-methylamino-5-trifluoromethyl-pyrimidin-2-ylamino)-phenyl]-morpholin-4-yl-methanone]	4.97 nM
O=C(c1cc(F)c(Nc2ncc(C(F)(F)F)c(NC3CC3)n2)cc1F)N1CCOCC1 [Compound 52, [4-(4-Cyclopropylamino-5-trifluoromethyl-pyrimidin-2-ylamino)-2,5-difluoro-phenyl]-morpholin-4-yl-methanone]	3.35 nM
CCNc1nc(Nc2cc(OC)c(C(=O)N3CC4(COC4)C3)cc2Cl)ncc1C(F)(F)F [Compound 43, [5-Chloro-4-(4-ethylamino-5-trifluoromethyl-pyrimidin-2-ylamino)-2-methoxy-phenyl]-(2-oxa-6-aza-spiro[3.3]hept-6-yl)-methanone]	0.832 nM

Same assay, conditions: Table 6 compounds (formula II/III, fused ring)

Molecule	Ki
[5-Chloro-2-hydroxy-4-(4-methylamino-5-trifluoromethyl-pyrimidin-2-ylamino)-phenyl]-morpholin-4-yl-methanone [Compound 10]	3.17 nM
